One test addresses GCN2 kinase (Homo sapiens, UniProt Q9P2K8). The test is described as follows: GCN2 enzyme inhibition assay (Transcreener ADP2 fluorescence polarization). It is filed as biochemical. Particulars: 280 μM ATP. The essentials: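 4 nM GCN2 + 200 μM (RS)7 + compound (0–8 μM), 10 min preinc.; start with ATP (280 μM final); 1 h, 25 °C; pH 7.5 Tris/NaCl/MgCl2/DTT; ADP FP readout; IC50, Ki(app) via tight-binding fit.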
Background: Fluorescence polarisation rises when a labelled molecule tumbles more slowly, as on binding a larger partner.

Test [1] concerns the target intracellular GCN2 (phosphorylation of the GCN2 substrate eIF2α) (Homo sapiens, UniProt Q9P2K8). The test can be described thus: GCN2 cellular inhibition assay (AlphaScreen SureFire P-eIF2α Ser51, borrelidin-treated U2OS cells). It is filed as cell-based. How it is done:
Compounds can be screened for their ability to inhibit intracellular GCN2 using an AlphaScreen assay (Perkin Elmer) to detect phosphorylation of the GCN2 substrate eIF2α in borrelidin-treated cells. U2OS cells are plated at 5,000 cells per well in 384-well white polystyrene plates (Corning 3570) in McCoy's 5 A media (GIBCO 26600-023) supplemented with 10% foetal bovine serum (SAFC 12103C), Penicillin/Streptomycin solution diluted 1:100 (Sigma P0781), and 2 mM L-glutamine (Sigma G7513), and allowed to adhere overnight at 37° C. in 5% CO2. Compounds are then added to the cell media from a final concentration of 40 μM in 4-fold serial dilutions. Borrelidin (FluoroChem M01440) is immediately added to the wells to a final concentration of 10 μM and the cells are incubated for 1 h at 37° C. in 5% CO2. After 1 h of treatment with borrelidin, the media is removed, and the cells are lysed with lysis buffer (TGR BioSciences TGRLB) at ambient temperature.
An AlphaScreen SureFire P-eIF2α (Ser51) assay kit (Perkin Elmer TGREIF2S) was used to measure levels of eIF2α phosphorylated on Serine 51. Anti-phosphorylated eIF2α Ser51 antibody-linked acceptor beads (TGR BioScience 6760617) are added to the cell homogenate (diluted 1:250 into a mixture of activation (TGR BioScience TGRAB) and reaction buffer (TGR BioScience TGREIF2S) prepared immediately before use). The plate is then incubated for 2 h at ambient temperature in the dark. Anti-eIF2α antibody-linked donor beads (TGR BioScience 6760617) were then added (diluted 1:100 in dilution buffer (TGR BioScience TGRDB) prepared immediately before use). The plate is then incubated overnight at ambient temperature in the dark.
Plates are analyzed on an Alpha Technology-compatible PHERAstar FS plate reader (BMG Labtech Version 1.14) to quantify phosphorylated eIF2α Ser51 levels. The percentage inhibition of phosphorylated eIF2α is calculated by comparison to control wells stimulated with borrelidin alone.

Setting [2] is: Enzyme activity for compounds of Formula IV, Ki(app), 25° C.
Where [3] appears, read: compounds of Formula IV, biomarker assay, phosphorylated eIF2α Ser51 in borrelidin-treated U2OS cells.
Setting [4] is: compounds of Formula II, 4 nM GCN2 kinase.
Where [5] appears, read: compounds of Formula II, biomarker assay, phosphorylated eIF2α Ser51 in borrelidin-treated U2OS cells.

These results are taken from patent US10988477B2 (Merck Patent GmbH, priority 2018, dated 2021).

As usually defined, the IC50 is the point on the concentration scale where inhibition reaches its midpoint.

Like-named read-outs stand apart in the source and are kept apart here.

Sequence of GCN2 kinase (Q9P2K8 whole entry): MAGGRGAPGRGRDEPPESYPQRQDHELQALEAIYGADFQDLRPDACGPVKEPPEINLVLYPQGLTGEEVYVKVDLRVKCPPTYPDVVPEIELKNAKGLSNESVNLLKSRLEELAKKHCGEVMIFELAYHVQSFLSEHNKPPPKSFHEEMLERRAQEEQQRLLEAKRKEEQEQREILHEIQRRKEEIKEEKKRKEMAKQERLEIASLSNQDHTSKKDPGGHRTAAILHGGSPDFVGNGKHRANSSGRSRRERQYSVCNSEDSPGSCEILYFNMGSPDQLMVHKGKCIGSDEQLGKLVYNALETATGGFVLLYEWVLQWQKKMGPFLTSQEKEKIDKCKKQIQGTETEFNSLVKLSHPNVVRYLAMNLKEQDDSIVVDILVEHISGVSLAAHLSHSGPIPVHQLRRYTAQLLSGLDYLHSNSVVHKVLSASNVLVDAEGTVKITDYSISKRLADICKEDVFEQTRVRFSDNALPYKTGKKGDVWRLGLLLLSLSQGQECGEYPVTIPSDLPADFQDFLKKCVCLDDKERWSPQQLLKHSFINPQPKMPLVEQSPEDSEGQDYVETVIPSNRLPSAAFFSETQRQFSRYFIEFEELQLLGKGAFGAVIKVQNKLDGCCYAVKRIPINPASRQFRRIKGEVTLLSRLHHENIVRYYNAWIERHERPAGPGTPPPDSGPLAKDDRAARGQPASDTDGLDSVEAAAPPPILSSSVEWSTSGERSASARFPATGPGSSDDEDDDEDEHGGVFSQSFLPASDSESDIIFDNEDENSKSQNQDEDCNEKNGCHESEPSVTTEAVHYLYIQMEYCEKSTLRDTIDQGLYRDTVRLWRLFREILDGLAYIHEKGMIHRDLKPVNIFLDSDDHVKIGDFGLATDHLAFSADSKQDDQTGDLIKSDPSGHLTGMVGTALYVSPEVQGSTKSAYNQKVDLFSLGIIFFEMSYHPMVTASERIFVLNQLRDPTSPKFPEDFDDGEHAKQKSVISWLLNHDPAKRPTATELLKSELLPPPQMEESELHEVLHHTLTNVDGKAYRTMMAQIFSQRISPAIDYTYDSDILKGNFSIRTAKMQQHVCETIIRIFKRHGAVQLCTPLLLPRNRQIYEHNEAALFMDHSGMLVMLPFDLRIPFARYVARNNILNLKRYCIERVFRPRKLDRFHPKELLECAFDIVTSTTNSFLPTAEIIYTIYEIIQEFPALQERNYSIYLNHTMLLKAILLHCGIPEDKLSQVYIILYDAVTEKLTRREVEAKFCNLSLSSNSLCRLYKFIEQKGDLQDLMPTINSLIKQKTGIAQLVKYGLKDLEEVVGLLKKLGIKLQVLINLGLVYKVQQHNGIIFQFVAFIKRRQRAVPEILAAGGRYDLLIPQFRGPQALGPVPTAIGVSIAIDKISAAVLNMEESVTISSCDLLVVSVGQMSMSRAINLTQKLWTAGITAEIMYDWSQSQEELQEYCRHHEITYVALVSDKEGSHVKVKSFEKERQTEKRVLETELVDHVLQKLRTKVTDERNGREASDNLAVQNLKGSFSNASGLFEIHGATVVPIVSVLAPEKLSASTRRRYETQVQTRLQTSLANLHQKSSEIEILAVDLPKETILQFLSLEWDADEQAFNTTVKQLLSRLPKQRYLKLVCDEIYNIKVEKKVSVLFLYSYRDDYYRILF
Sequence of intracellular GCN2 (phosphorylation of the GCN2 substrate eIF2α) (Q9P2K8 whole entry): as above

`CC1CN(c2nccc(-c3cnc4cnc(C(F)(F)F)cn34)n2)C(C)C(c2cn[nH]c2)N1` (single isomer, unassigned) [IV-369, 3-(2-(2,5-Dimethyl-3-(1H-pyrazol-4-yl)piperazin-1-yl)pyrimidin-4-yl)-6-(trifluoromethyl)imidazo[1,2-a]pyrazine]: the Ki at GCN2 kinase (setting [2]) is less than 10 nM. In test [1] (setting [3]), this compound displayed an IC50 of 500 to 5000 nM.

The compound `CNC(=O)c1cc(C2CCCN(c3ccnc(-c4cnc5cnc(C(F)F)cn45)n3)C2)n[nH]1` (stereo not shown) [IV-95, 3-(1-(2-(6-(Difluoromethyl)imidazo[1,2-a]pyrazin-3-yl)pyrimidin-4-yl)piperidin-3-yl)-N-methyl-1H-pyrazole-5-carboxamide] returned a Ki at GCN2 kinase (setting [2]) of 100 to 1000 nM. In test [1] (setting [3]), the IC50 is greater than 5000 nM.

For `CS(=O)(=O)NC[C@@H]1CN(c2cc(-c3cnn4cc(F)c(C(F)F)nc34)ncn2)CCO1` [III-10, N-[[(2S)-4-[6-[5-(Difluoromethyl)-6-fluoro-pyrazolo[1,5-a]pyrimidin-3-yl]pyrimidin-4-yl]morpholin-2-yl]methyl]methanesulfonamide], on GCN2 kinase (compounds of Formula III, 4 nM GCN2 kinase), the Ki is less than 10 nM. In addition, the concentration for half-maximal inhibition (IC50) in test [1] (compounds of Formula III, U2OS cells, 10 μM borrelidin, 1 h, read-out: GCN2 Biomarker (IC50)) is less than 500 nM.

On GCN2 kinase (setting [4]), `NS(=O)(=O)NCC1CCCN(c2cc(-c3cnc4ccc(C(F)F)nn34)ncn2)C1` (stereo not shown) [II-202, 1-((1-(6-(6-(Difluoromethyl)imidazo[1,2-b]pyridazin-3-yl)pyrimidin-4-yl)piperidin-3-yl)methyl)sulfuric diamide] showed a Ki of less than 10 nM. The compound further returned an IC50 in test [1] (setting [5]) of less than 500 nM.

Regarding `CS(C)(=O)=NC[C@@H]1CN(c2cc(-c3cnc4ccc(C(F)(F)F)nn34)ncn2)CCO1` [II-406, (S)-Dimethyl(((4-(6-(6-(trifluoromethyl)imidazo[1,2-b]pyridazin-3-yl)pyrimidin-4-yl)morpholin-2-yl)methyl)imino)-λ^6-sulfanone], the Ki at GCN2 kinase (setting [4]) is greater than 1000 nM. In addition, the IC50 in test [1] (setting [5]) was greater than 5000 nM.

In the case of `CS(=O)(=O)NC1CCCN(c2ccnc(-c3cnc4cnc(C(F)F)cn34)n2)CC1` (stereo not shown) [IV-124], the Ki on GCN2 kinase (setting [2]) is 100 to 1000 nM. Moreover, the IC50 in test [1] (setting [3]) was greater than 5000 nM.

Consider `CS(C)(=O)=NC1CC(c2cn[nH]c2)CN(c2ccnc(-c3cnc4cnc(C(F)(F)F)cn34)n2)C1` (single isomer, unassigned) [IV-400, ((5-(1H-Pyrazol-4-yl)-1-(2-(6-(trifluoromethyl)imidazo[1,2-a]pyrazin-3-yl)pyrimidin-4-yl)piperidin-3-yl)imino)dimethyl-λ^6-sulfanone], for which the Ki on GCN2 kinase (setting [2]) is 10 to 100 nM. The same compound gave an IC50 in test [1] (setting [3]) greater than 5000 nM.

For the compound `FC(F)c1ccc2ncc(-c3ccnc(N4CCOC(c5cn[nH]c5)C4)c3)n2n1` (stereo not shown) [II-147, 4-(4-(6-(Difluoromethyl)imidazo[1,2-b]pyridazin-3-yl)pyridin-2-yl)-2-(1H-pyrazol-4-yl)morpholine], the Ki on GCN2 kinase (setting [4]) is 10 to 1000 nM. Besides, the IC50 in test [1] (setting [5]) was less than 500 nM.

In turn, `CS(C)(=O)=NC1CC(c2cn[nH]c2)CN(c2ccnc(-c3cnc4cnc(C(F)(F)F)cn34)n2)C1` (single isomer, unassigned) [IV-399, ((5-(1H-Pyrazol-4-yl)-1-(2-(6-(trifluoromethyl)imidazo[1,2-a]pyrazin-3-yl)pyrimidin-4-yl)piperidin-3-yl)imino)dimethyl-λ^6-sulfanone] showed a Ki at GCN2 kinase (setting [2]) of less than 10 nM. In test [1] (setting [3]), the IC50 is 500 to 5000 nM.

At GCN2 kinase (setting [2]), `O=C(c1cccc(-c2ccnc(-c3cnc4cnc(C(F)F)cn34)n2)c1)N1CCNCC1` [IV-150, (3-(2-(6-(Difluoromethyl)imidazo[1,2-a]pyrazin-3-yl)pyrimidin-4-yl)phenyl)(piperazin-1-yl)methanone] gave a Ki of 100 to 1000 nM. The same compound returned an IC50 in test [1] (setting [3]) greater than 5000 nM.

On GCN2 kinase (setting [4]), `CC1(F)CCN(c2cc(-c3cnc4ccc(C(F)F)nn34)ncn2)CC1CNS(C)(=O)=O` (single isomer, unassigned) [II-388, N-((1-(6-(6-(Difluoromethyl)imidazo[1,2-b]pyridazin-3-yl)pyrimidin-4-yl)-4-fluoro-4-methylpiperidin-3-yl)methyl)methanesulfonamide] returned a Ki of 10 to 1000 nM. In test [1] (setting [5]), the half-maximal inhibitory concentration (IC50) lay within 500 to 5000 nM.

Consider `C[C@H](NS(C)(=O)=O)[C@@H]1CN(c2cc(-c3cnc4ccc(C(F)F)nn34)ncn2)CCO1` (single isomer, unassigned) [II-509], for which the Ki on GCN2 kinase (setting [4]) is less than 10 nM. Moreover, in test [1] (setting [5]), the IC50 is less than 500 nM.

Compound `FC(F)c1ccc2ncc(-c3cc(N4CCCC(Cn5cncn5)C4)ncn3)n2n1` (stereo not shown) [II-339, 3-(6-(3-((1H-1,2,4-Triazol-1-yl)methyl)piperidin-1-yl)pyrimidin-4-yl)-6-(difluoromethyl)imidazo[1,2-b]pyridazine] gave a Ki on GCN2 kinase (setting [4]) of 10 to 1000 nM. The compound also had an IC50 in test [1] (setting [5]) of 500 to 5000 nM.

`CC(=O)N1CCN(c2cncc(-c3cnc4ccc(C(F)F)nn34)c2)CC1` [II-171, 1-(4-(5-(6-(Difluoromethyl)imidazo[12-b]pyridazin-3-yl)pyridin-3-yl)piperazin-1-yl)ethanone]: on GCN2 kinase (setting [4]), the Ki fell in the range of 10 to 1000 nM. In test [1] (setting [5]), the IC50 lay in the range of 500 to 5000 nM.

On GCN2 kinase (setting [4]), `[O-][S+]1CCN(c2cc(-c3cnc4ccc(C(F)F)nn34)ncn2)CC1` [II-296, 4-(6-(6-(Difluoromethyl)imidazo[1,2-b]pyridazin-3-yl)pyrimidin-4-yl)thiomorpholine 1-oxide] registered a Ki greater than 1000 nM. The compound also registered an IC50 in test [1] (setting [5]) greater than 5000 nM.

Take `CS(=O)(=O)N1CCC2C(C1)OCCN2c1cc(-c2cnc3ccc(C(F)F)nn23)ncn1` (stereo not shown) [II-369, 1-(6-(6-(Difluoromethyl)imidazo[1,2-b]pyridazin-3-yl)pyrimidin-4-yl)-6-(methylsulfonyl)octahydro-1H-pyrido[3,4-b][1,4]oxazine]: the Ki on GCN2 kinase (setting [4]) fell in the range of 10 to 1000 nM. In test [1] (setting [5]), the IC50 was greater than 5000 nM.

As for `CS(=O)(=O)NCC1CCCN(c2cc(-c3cnc4ccc(C(F)F)nn34)cc(N3CC4(CCO4)C3)n2)C1` (stereo not shown) [II-86, N-((1-(4-(6-(Difluoromethyl)imidazo[1,2-b]pyridazin-3-yl)-6-(1-oxa-6-azaspiro[3.3]heptan-6-yl)pyridin-2-yl)piperidin-3-yl)methyl)methanesulfonamide], the Ki on GCN2 kinase (setting [4]) is less than 10 nM. In addition, the IC50 in test [1] (setting [5]) fell in the range of 500 to 5000 nM.

Compound `C[C@@H]1[C@H](c2cn[nH]c2)OCCN1c1ccnc(-c2cnc3cnc(C#N)cn23)n1` (racemic) [IV-280, Cis-3-(4-(3-Methyl-2-(1H-pyrazol-4-yl)morpholino)pyrimidin-2-yl)imidazo[1,2-a]pyrazine-6-carbonitrile] showed a Ki on GCN2 kinase (setting [2]) of less than 10 nM. Moreover, the IC50 in test [1] (setting [3]) is less than 500 nM.

Compound `CC1C(CNS(C)(=O)=O)NCCN1c1cc(-c2cnc3ccc(C(F)(F)F)nn23)ncn1` (stereo not shown) [II-466, N-((3-Methyl-4-(6-(6-(trifluoromethyl)imidazo[1,2-b]pyridazin-3-yl)pyrimidin-4-yl)piperazin-2-yl)methyl)methanesulfonamide] returned a Ki at GCN2 kinase (setting [4]) of less than 10 nM. The compound also had an IC50 in test [1] (setting [5]) of less than 500 nM.

For `CS(=O)(=O)NCC1CCCN(c2cc(-c3cnc4ccc(C(F)F)nn34)cnc2CN)C1` (stereo not shown) [II-73, N-((1-(2-(Aminomethyl)-5-(6-(difluoromethyl)imidazo[1,2-b]pyridazin-3-yl)pyridin-3-yl)piperidin-3-yl)methyl)methanesulfonamide], the Ki at GCN2 kinase (setting [4]) fell in the range of 10 to 1000 nM. Also, in test [1] (setting [5]), the IC50 is greater than 5000 nM.

In the case of `CS(=O)(=O)N1CC2(CCCN(c3cc(-c4cnc5ccc(C(F)F)nn45)ncn3)C2)C1` [II-281, 6-(Difluoromethyl)-3-(6-(2-(methylsulfonyl)-2,6-diazaspiro[3.5]nonan-6-yl)pyrimidin-4-yl)imidazo[1,2-b]pyridazine], the Ki on GCN2 kinase (setting [4]) was less than 10 nM. In test [1] (setting [5]), this compound displayed an IC50 of less than 500 nM.

With `Cc1nc(C2CCCN(c3ccnc(-c4cnc5cnc(Br)cn45)n3)C2)c[nH]1` (single isomer, unassigned) [IV-374, 6-Bromo-3-(4-(3-(2-methyl-1H-imidazol-4-yl)piperidin-1-yl)pyrimidin-2-yl)imidazo[1,2-a]pyrazine], the Ki on GCN2 kinase (setting [2]) is 10 to 100 nM. In test [1] (setting [3]), this compound had an IC50 of 500 to 5000 nM.

`Cc1cc(N2CC(C)NC(c3cn[nH]c3)C2C)nc(-c2cnc3cnc(C(F)(F)F)cn23)n1` (single isomer, unassigned) [IV-669, 3-(4-(2,5-Dimethyl-3-(1H-pyrazol-4-yl)piperazin-1-yl)-6-methylpyrimidin-2-yl)-6-(trifluoromethyl)imidazo[1,2-a]pyrazine] displayed a Ki on GCN2 kinase (setting [2]) of 100 to 1000 nM. In test [1] (setting [3]), this compound came in with an IC50 greater than 5000 nM.
